Measurements reported in US12329158B2, “Large-scale methods of uniformly coating packaging surfaces with a volatile antimicrobial to preserve food freshness” (AGROFRESH INC., priority 2013, dated 2025).
Converted amounts (≈) assume the structure as drawn.

Columns and labels:
Penicillium expansum = assay: Blue mold on apple and pear, contact assay (Example 25); format: in vivo; details: Contact (dip); rate not given; day 3 at 21 C after 5 days at 1 C
Experimental: A 250 mL solution of each concentration is used to dip two inoculated fruits, one minute per fruit, performed in triplicate per rate. The dipped fruits are then placed back into the clamshells and then into the SnapWare container and incubated at 1° C. for 5 days. […] Volatile application of Compound A results in excellent inhibition of browning and sporulation, whereas all other active ingredients result in no or little inhibition.

Trichophyton rubrum = assay: In vitro volatile assay (Example 26); format: cell-based; details: Trichophyton rubrum, 120 h, 5 days at 28 C, 100% control, read-out: MIC (mg/L) Trichophyton rubrum
Experimental: (§1) Volatile assay: 6-well (16.5 mL volume per well) microtiter plates are used in an in vitro inhibition assay for Compounds A and 31, and compared to other registered fungicides (5-fluorocytosine, Amphotericin B, aspofungin diacetate, Fluconazole and Itraconazole). A 7.5-mL volume of half strength PDA is added to each well. After drying, a mycelial plug (5 mm diameter) is aseptically obtained from actively growing cultures of Epidermophyton floccus, Trichophyton rubrum, or Trichophyton mentagrophytes and placed at the center of the plate with the mycelial side in contact with the agar. A Whatman #1 filter disk (Cat. No. 1001-325) is placed, in duplicate, on the underside of a polyethylene PCR plate sealing film. […] The headspace around the inoculum is then sealed inside the well by the film with the adhering disk containing the fungicide and incubated inverted for 5 days at 28° C.

[1] = test system: Trichophyton mentagrophytes; assay: In vitro volatile assay (Example 26); format: cell-based; details: Trichophyton mentagrophytes, 120 h, 5 days at 28 C, 100% control, read-out: MIC (mg/L) Trichophyton mentagrophytes
Experimental: as §1

Botrytis cinerea [2] = assay: In-clamshell Compound A applied by painting, spraying or sublimation; strawberries (Example 1); format: in vivo; details: 5 mg/clamshell
Experimental: An in vivo assay was used to evaluate the ability of Compound A to volatilize from a clamshell chamber and control pathogenic infection when applied by various techniques. Multiple empty 1-lb PET clamshells (ProducePackaging.com, #036QT) were placed inside triplicate air-tight 36 L chamber (Fisher Scientific, Catalogue #08-642-23C) fitted with a bulkhead septum port (Swagelok, SS-401-61, Solon, OH).
Compound A headspace was permitted to equilibrate overnight at 21° C.
Five milligrams of Compound A was dissolved in 1 ml of ethanol prior to being uniformly administered to the interior of the clamshell by painting or spraying, and then dried for 5 minutes. After coating the clamshells with Compound A using various application techniques (i.e., sublimation, spraying, or painting), eight ethanol-washed strawberries were placed in the clamshell with stem end facing downwards. Each strawberry fruit was wounded using a T15 screwdriver tip to a uniform depth of eight mm (8 mm). […] Uninoculated strawberries were removed from their commercial package, and directly transferred into treated clamshells without any washing or inoculation steps.
Treated clamshells lids were closed, and then placed at 1° C. for an initial time period of 5 days. Clamshells were then removed from low temperature, and held for a second time period of 6 days at room temperature where the point of inoculation on the strawberry fruits was assessed for indication of disease incidence reported as a percentage (%). Severity of disease incidence was also reported.

P. expansum = assay: In vitro contact assay, amended agar (Example 24); format: cell-based; details: Penicillium expansum, 72 h; amended agar; 100% control; 3 days at 23 C; read-out: Contact MIC (mg/L) P. expansum
Experimental: (§2) Contact assay: 6-well (16.5 mL volume per well) microtiter plates are used for an in vitro inhibition assay. […] A 7.5-mL volume of the amended media is added to each well of the microtiter plate. […] The plates are sealed with a clear film and incubated for 3 days at 23° C. After incubation, plates are evaluate for percent growth relative to acetone only control.

B. cinerea = assay: In vitro contact assay, amended agar (Example 24); format: cell-based; details: Botrytis cinerea, 72 h; amended agar; 100% control; 3 days at 23 C; read-out: Contact MIC (mg/L) B. cinerea
Experimental: as §2

Botrytis cinerea [3] = assay: Gray mold on strawberry, contact assay (Example 23); format: in vivo
Experimental: Eight strawberries (per repetition, in triplicate) are placed in an industry standard 1-lb PET clamshell with the stem-end facing down.
Contact Assay: Compound A is dissolved in 85% methanol to achieve a final concentration of 250, 50, 10, or 2 mg/L. A 250 mL solution of each concentration is used to dip eight inoculated strawberry fruit for one-minute, performed in triplicate per rate. The dipped fruits are then placed back into the clamshells, which are then placed in a secondary container and incubated at 1° C. for 5 days. After incubation, fruits are evaluated for disease severity (scale 0 to 4, with ≤1 indicating marketable fruit and 4 indicating ≥50% of fruit surface covered by pathogen) up to 4 days at 21° C.

OB1OCc2cc(F)ccc21 [Compound A, 5-fluoro-1,3-dihydro-1-hydroxy-2,1-benzoxaborole]
Apple Browning (mm) (Penicillium expansum): 9.9 mm
Apple Sporulation (mm) (Penicillium expansum): 2.3 mm
Pear Browning (mm) (Penicillium expansum): 18.9 mm
Pear Sporulation (mm) (Penicillium expansum): 8.4 mm
MIC (Trichophyton rubrum): 2 mg/L (≈ 13.2 µM)
MIC [1]: 2 mg/L (≈ 13.2 µM)
Gray Mold Incidence (%) (Botrytis cinerea [2]; Inoculated Fruit, Paint, Day 0): 0.0%
Gray Mold Incidence (%) (Botrytis cinerea [2]; Inoculated Fruit, Paint, Day 1): 0.0%
Gray Mold Incidence (%) (Botrytis cinerea [2]; Inoculated Fruit, Paint, Day 2): 0.0%
Gray Mold Incidence (%) (Botrytis cinerea [2]; Inoculated Fruit, Paint, Day 3): 0.0%
Gray Mold Incidence (%) (Botrytis cinerea [2]; Inoculated Fruit, Paint, Day 4): 0.0%
Gray Mold Incidence (%) (Botrytis cinerea [2]; Inoculated Fruit, Paint, Day 5): 0.0%
Gray Mold Incidence (%) (Botrytis cinerea [2]; Inoculated Fruit, Paint, Day 6): 0.0%
Gray Mold Incidence (%) (Botrytis cinerea [2]; Inoculated Fruit, Spray, Day 0): 0.0%
Gray Mold Incidence (%) (Botrytis cinerea [2]; Inoculated Fruit, Spray, Day 1): 0.0%
Gray Mold Incidence (%) (Botrytis cinerea [2]; Inoculated Fruit, Spray, Day 2): 0.0%
Gray Mold Incidence (%) (Botrytis cinerea [2]; Inoculated Fruit, Spray, Day 3): 0.0%
Gray Mold Incidence (%) (Botrytis cinerea [2]; Inoculated Fruit, Spray, Day 4): 0.0%
Gray Mold Incidence (%) (Botrytis cinerea [2]; Inoculated Fruit, Spray, Day 5): 0.0%
Gray Mold Incidence (%) (Botrytis cinerea [2]; Inoculated Fruit, Spray, Day 6): 0.0%
Gray Mold Incidence (%) (Botrytis cinerea [2]; Inoculated Fruit, Sublimation, Day 0): 0.0%
Gray Mold Incidence (%) (Botrytis cinerea [2]; Inoculated Fruit, Sublimation, Day 1): 0.0%
Gray Mold Incidence (%) (Botrytis cinerea [2]; Inoculated Fruit, Sublimation, Day 2): 0.0%
Gray Mold Incidence (%) (Botrytis cinerea [2]; Inoculated Fruit, Sublimation, Day 3): 0.0%
Gray Mold Incidence (%) (Botrytis cinerea [2]; Inoculated Fruit, Sublimation, Day 4): 0.0%
Gray Mold Incidence (%) (Botrytis cinerea [2]; Inoculated Fruit, Sublimation, Day 5): 0.9%
Gray Mold Incidence (%) (Botrytis cinerea [2]; Inoculated Fruit, Sublimation, Day 6): 0.9%
Gray Mold Incidence (%) (Botrytis cinerea [2]; Uninoculated Fruit, Paint, Day 0): 0.0%
Gray Mold Incidence (%) (Botrytis cinerea [2]; Uninoculated Fruit, Paint, Day 1): 0.3%
Gray Mold Incidence (%) (Botrytis cinerea [2]; Uninoculated Fruit, Paint, Day 2): 3.9%
Gray Mold Incidence (%) (Botrytis cinerea [2]; Uninoculated Fruit, Paint, Day 3): 5.1%
Gray Mold Incidence (%) (Botrytis cinerea [2]; Uninoculated Fruit, Paint, Day 4): 7.4%
Gray Mold Incidence (%) (Botrytis cinerea [2]; Uninoculated Fruit, Paint, Day 5): 17.0%
Gray Mold Incidence (%) (Botrytis cinerea [2]; Uninoculated Fruit, Paint, Day 6): 21.7%
Gray Mold Incidence (%) (Botrytis cinerea [2]; Uninoculated Fruit, Spray, Day 0): 0.0%
Gray Mold Incidence (%) (Botrytis cinerea [2]; Uninoculated Fruit, Spray, Day 1): 0.6%
Gray Mold Incidence (%) (Botrytis cinerea [2]; Uninoculated Fruit, Spray, Day 2): 2.1%
Gray Mold Incidence (%) (Botrytis cinerea [2]; Uninoculated Fruit, Spray, Day 3): 4.8%
Gray Mold Incidence (%) (Botrytis cinerea [2]; Uninoculated Fruit, Spray, Day 4): 6.0%
Gray Mold Incidence (%) (Botrytis cinerea [2]; Uninoculated Fruit, Spray, Day 5): 17.9%
Gray Mold Incidence (%) (Botrytis cinerea [2]; Uninoculated Fruit, Spray, Day 6): 19.9%
Gray Mold Incidence (%) (Botrytis cinerea [2]; Uninoculated Fruit, Sublimation, Day 0): 0.0%
Gray Mold Incidence (%) (Botrytis cinerea [2]; Uninoculated Fruit, Sublimation, Day 1): 0.3%
Gray Mold Incidence (%) (Botrytis cinerea [2]; Uninoculated Fruit, Sublimation, Day 2): 1.5%
Gray Mold Incidence (%) (Botrytis cinerea [2]; Uninoculated Fruit, Sublimation, Day 3): 3.3%
Gray Mold Incidence (%) (Botrytis cinerea [2]; Uninoculated Fruit, Sublimation, Day 4): 5.7%
Gray Mold Incidence (%) (Botrytis cinerea [2]; Uninoculated Fruit, Sublimation, Day 5): 16.7%
Gray Mold Incidence (%) (Botrytis cinerea [2]; Uninoculated Fruit, Sublimation, Day 6): 20.2%
MIC (P. expansum): 0.4 mg/L (≈ 2.63 µM)
MIC (B. cinerea): < 0.08 mg/L
Disease Severity (0 to 4) (Botrytis cinerea [3]; 2 mg/L, Day 0): 0.0
Disease Severity (0 to 4) (Botrytis cinerea [3]; 2 mg/L, Day 1): 0.0
Disease Severity (0 to 4) (Botrytis cinerea [3]; 2 mg/L, Day 2): 0.6
Disease Severity (0 to 4) (Botrytis cinerea [3]; 2 mg/L, Day 3): 1.1
Disease Severity (0 to 4) (Botrytis cinerea [3]; 2 mg/L, Day 4): 1.9
Disease Severity (0 to 4) (Botrytis cinerea [3]; 10 mg/L, Day 0): 0.0
Disease Severity (0 to 4) (Botrytis cinerea [3]; 10 mg/L, Day 1): 0.0
Disease Severity (0 to 4) (Botrytis cinerea [3]; 10 mg/L, Day 2): 0.0
Disease Severity (0 to 4) (Botrytis cinerea [3]; 10 mg/L, Day 3): 0.3
Disease Severity (0 to 4) (Botrytis cinerea [3]; 10 mg/L, Day 4): 1.0
Disease Severity (0 to 4) (Botrytis cinerea [3]; 50 mg/L, Day 0): 0.0
Disease Severity (0 to 4) (Botrytis cinerea [3]; 50 mg/L, Day 1): 0.0
Disease Severity (0 to 4) (Botrytis cinerea [3]; 50 mg/L, Day 2): 0.0
Disease Severity (0 to 4) (Botrytis cinerea [3]; 50 mg/L, Day 3): 0.0
Disease Severity (0 to 4) (Botrytis cinerea [3]; 50 mg/L, Day 4): 0.0
Disease Severity (0 to 4) (Botrytis cinerea [3]; 250 mg/L, Day 0): 0.0
Disease Severity (0 to 4) (Botrytis cinerea [3]; 250 mg/L, Day 1): 0.0
Disease Severity (0 to 4) (Botrytis cinerea [3]; 250 mg/L, Day 2): 0.0
Disease Severity (0 to 4) (Botrytis cinerea [3]; 250 mg/L, Day 3): 0.0
Disease Severity (0 to 4) (Botrytis cinerea [3]; 250 mg/L, Day 4): 0.0
